This note sets out measurements from patent US10391148B2, “Method of prevention and inhibition of preterm labor” (Wayne State University, priority 2016, dated 2019).

“Also recorded” adds a separate entry of the source.

Test [1] relates to PIBF1 expression by human peripheral blood B cells. Description: PIBF1 expression by purified human peripheral blood IgD+ B cells after stimulation (qRT-PCR, Western Blot). The class given is cell-based. The conditions noted are these: 2 days (3 days in FIG. 4A), 100 ng/ml cytokine, 1 ng/ml TGF-β, 1 μM progesterone, vs medium control. Here is the method: Placentas and the attached chorioamniotic membranes were obtained after delivery. In each case, several random strips of the chorioamniotic membranes located at different regions of the choriodecidua were embedded in rolls in optimal cutting temperature (OCT) compound (Sakura Finetek 4583), frozen in liquid nitrogen and stored at −80° C. for immunofluorescence analysis. Choriodecidual tissues were scraped from the chorionic membranes that had blood clots removed, and digested with 0.2% (w/v) Clostridium histolyticum Collagenase V (Sigma-Aldrich C9263) in RPMI-1640 with 10% fetal bovine serum (Thermo Fisher Scientific 26140-079) at 37° C. with gentle agitation for 45 minutes. Cells released from the tissues were cleaned by being passed through a 100 μm cell strainer and centrifuged on a Ficoll gradient. Peripheral blood leukocytes of anonymous healthy donors after leukophoresis were obtained from the Southeast Michigan branch of American Red Cross. Peripheral blood mononuclear cells (PBMCs) were isolated using Histopaque-1077 (Sigma-Aldrich 10771) following the manufacturer's instruction. Red blood cells were lysed using an ammonium-chloride-potassium (ACK) lysing buffer (Thermo Fisher Scientific A1049201). IgD+B cells were purified from PBMCs by magnetic-activated cell sorting (MACS) with a biotinylated goat F(ab′)2 anti-human IgD antibody and anti-biotin magnetic microbeads (Miltenyi Biotec) as described in Chen, K., et al., Nat Immunol 10, 889-898 (2009). The purity of the IgD+B cells ranged from 92% to 99% as determined by flow cytometry with CDI9 staining. CD19+ B cells were similarly separated from PBMCs using a biotinylated mouse anti-human CD19 (clone HIB19) antibody, with purity ranging from 93% to 97% as determined by flow cytometry using a different clone (SJ25C1) of CD19 antibody.
Human PMBCs, IgD+B cells, CD19+ B cells or PBMCs depleted of CD19+ B cells were cultured in RPMI-1640 medium (Sigma-Aldrich R8578) supplemented with 2 mM L-glutamine, 2 mg/ml NaHCO3, 100 U/ml penicillin, 100 µg/ml streptomycin, […] amphotericin B and 10% FBS. Cells were stimulated with 100 ng/ml IL-33 (R&D 3625-IL-010 or Peprotech 200-33), 1 μM progesterone (Sigma-Aldrich P0130), IL-4 (Peprotech 200-04), IL-10 (Peprotech 200-10), IL-17A (Peprotech 200-17), IL-25 (R&D 1258-IL-025), IFN-γ (Peprotech 300-02), TGF-β (R&D 240-B-010/CF), TNF (210-TA-020) or TSLP (Peprotech 300-62). RNA or protein expression was analyzed after 2 days.
RNA was extracted from cells or tissues using TRIzol (Thermo Fisher Scientific 15596026). cDNA synthesis was performed using the Superscript III first strand synthesis system (Thermo Fisher Scientific 188080051) in a thermocycler (Bio-Rad T100). qRT-PCR was performed with Power SYBR Green PCR Master Mix (Thermo Fisher Scientific 4367660) in a StepOnePlus instrument (Applied Biosystems) using pairs of sense and anti-sense primers targeted at the genes of interest (Tables 2, 3).
Cells were pelleted and washed twice with cold PBS and lysed in a pH 8.0 protein extraction buffer containing 20 mM Tris-HCl, 150 mM NaCl, 1% IGEPAL CA-630 (Sigma-Aldrich 18896), 0.1% sodium dodecyl sulfate (SDS), 1 mM EDTA and protease and phosphatase inhibitor cocktail on ice for 30 minutes. For protein extraction from mouse uterus and human chorioamniotic membranes, the tissue was washed twice with PBS to remove blood and homogenized in the above protein extraction buffer with a tissue tearor (Biospec Products 985370), followed by 3 rounds of sonication at 30% maximum power for 5 seconds per round using a sonifier (Thermo Fisher Scientific Q500). Supernatants were collected after centrifugation, heated at 98° C. in an SDS buffer with 4% β-mecaptoethanol for 5 minutes to denature proteins. Proteins were resolved in 4-20% Bis-Tris gels (GenScript M42012) and transferred to 0.45 μm nitrocellulose membranes (Bio-Rad 1620115). […]

The subject of test [2] is pregnant female μMT mice (LPS-induced PTL). The test can be described thus: LPS-induced preterm labor in pregnant μMT mice: preterm delivery and neonatal/fetal mortality. The class given is in vivo, mouse. The conditions noted are these: read on gd 17.5, fPIBF1 1 μg (800 ng in method), cPIBF1 300 ng, vs PBS; for rate of preterm delivery (PTL): protein intravenous on gd 16.5 three hours before 5 μg intraperitoneal LPS. Here is the method:
Six to ten-week old virgin female C57BL/6 (WT) or μMT mice were mated with male Balb/c mice. Female mice were examined daily in the early morning for the presence of a vaginal plug, which denoted gestational day (gd) 0.5. In the late morning of gd 16.5, pregnant female mice were intraperitoneally administered with 200 μl sterile PBS or 200 μl sterile PBS containing 0.5, 2.5, 5, 10 or 20 μg lipopolysaccharides (LPS) from Salmonella enterica serotype typhimurium (Sigma-Aldrich L6143). The various doses of LPS were given to the mice randomly. In some experiments, splenic B cells of 5 to 8-week old virgin female WT or IL-10−/− mice were purified using a mouse resting B cell negative isolation kit (Miltenyi Biotec 130-090-862) to 94% to 99% purity as determined by CD19 staining. 107 purified B cells were adoptively transferred in 200 μl sterile PBS into pregnant female μMT mice on gd 14.5 prior to LPS administration on gd 16.5. In some other experiments, 200 μl sterile PBS or 200 μl sterile PBS containing 800 ng recombinant full-length PIBF1 (fPIBF1) (aa 1-757 (SEQ ID NO:11, with an N-terminal glutathione-S-transferase (GST) tag of 232 amino acids, Abnova H00010464-P01) or 300 ng of a recombinant C-terminal fragment of PIBF1 (cPIBF1) (aa 660-755 (SEQ ID NO:12), with an N-terminal glutathione-S-transferase (GST) tag of 232 amino acids, Abnova H00010464-Q01) was intravenously administered to pregnant female μMT mice on gd 16.5 three hours prior to intraperitoneal LPS administration. 24 hours after LPS administration, female mice were examined for delivery and death of delivered pups if delivery occurred. They were then sacrificed for the examination of neonatal/fetal mortality, which was calculated as the total number of dead delivered pups and dead fetuses divided by the total number of implantation sites. Uteri were collected, briefly washed in PBS and processed for RNA and protein extraction or flow cytometry. The people performing the analysis were not blinded to the genotype or treatment of the mice.
The sample size was calculated based on the effect size derived from preliminary data at 5% significance level and 80% power using the software G*Power 3.1. Sample availability exceeded the estimated sample size. Results are expressed as mean±S.E.M. Percentage data were subjected to square root transformation prior to statistical analysis to verify test assumptions of equal variance. Statistical difference in the rate of PTL between different strains of mice or different treatment groups was assessed by Fisher's exact test. Statistical difference in neonatal/fetal mortality was assessed by Mann-Whitney U test. For flow cytometry and qRT-PCR data, Shapiro-Wilk test was used to determine the normality of the data. Statistical significance was assessed by Student's t-test for normally distributed data and Mann-Whitney U test for non-normally distributed data. p values <0.05 were considered statistically significant.

In the case of `CC(=O)[C@H]1CC[C@H]2[C@@H]3CCC4=CC(=O)CC[C@]4(C)[C@H]3CC[C@]12C` [progesterone, reference compound], the “PIBF1 expression by human peripheral blood B cells (PIBF1 transcript fold change, Western Blot)” value in test [1] was “known inducer of PIBF1”.
For “TGF-β: cytokine, R&D 240-B-010/CF [reference compound]”, the “PIBF1 expression by human peripheral blood B cells (PIBF1 transcript fold change, Western Blot)” value in test [1] is reported as “had no effect; also recorded: do not induce”.
Same read-out and setting: in the case of “TSLP: T helper type 2 cytokine, Peprotech 300-62 [reference compound]” it was “only IL-33 induced PIBF1 expression; also recorded: do not induce”.
With “cPIBF1: recombinant C-terminal fragment of PIBF1, aa 660-755, SEQ ID NO:12, N-terminal GST tag, Abnova H00010464-Q01”, the neonatal/fetal mortality result in test [2] (protein intravenous on gd 16.5 before 5 μg intraperitoneal LPS) is on record as “neither mitigated”. Besides, the entries for the “rate of preterm delivery (PTL)” value in test [2] and in test [2] (listed as C-terminal fragment of PIBF1) were “neither mitigated” and “does not protect”, respectively.

B1: IFN-γ: cytokine, Peprotech 300-02 (protein, UniProt P01579 24-161, looked up)
Interferon gamma: QDPYVKEAENLKKYFNAGHSDVADNGTLFLGILKNWKEESDRKIMQSQIVSFYFKLFKNFKDDQSIQKSVETIKEDMNVKFFNSNKKKRDDFEKLTNYSVTDLNVQRKAIHELIQVMAELSPAAKTGKRKRSQMLFRG
For B1, in test [1], the “PIBF1 expression by human peripheral blood B cells (PIBF1 transcript fold change, Western Blot)” value is reported as “had no effect; also recorded: do not induce”.

B2: IL-25: T helper type 2 cytokine, R&D 1258-IL-025 (protein, UniProt Q9H293 33-177, looked up)
Interleukin-25: YSHWPSCCPSKGQDTSEELLRWSTVPVPPLEPARPNRHPESCRASEDGPLNSRAISPWRYELDRDLNRLPQDLYHARCLCPHCVSLQTGSHMDPRGNSELLYHNQTVFYRRPCHGEKGTHKGYCLERRLYRVSLACVCVRPRVMG
For the molecule B2, the “PIBF1 expression by human peripheral blood B cells (PIBF1 transcript fold change, Western Blot)” value in test [1] is recorded as “only IL-33 induced PIBF1 expression; also recorded: do not induce”.

B3: IL-33: interleukin 33 cytokine (R&D 3625-IL-010 or Peprotech 200-33); human IL-33 is SEQ ID NO: 5 (protein, listed as Homo sapiens)
chain: MKPKMKYSTNKISTAKWKNTASKALCFKLGKSQQKAKEVCPMYFMKLRSGLMIKKEACYFRRETTKRPSLKTGRKHKRHLVLAACQQQSTVECFAFGISGVQKYTRALHDSSITGISPITEYLASLSTYNDQSITFALEDESYEIYVEDLKKDEKKDKVLLSYYESQHPSNESGDGVDGKMLMVTLSPTKDFWLHANNKEHSVELHKCEKPLPDQAFFVLHNMHSNCVSFECKTDPGVFIGVKDNHLALIKVDSSENLCTENILFKLSET
As to B3, in test [1], the “PIBF1 expression by human peripheral blood B cells (PIBF1 transcript fold change, Western Blot)” value is reported as “promoted PIBF1 expression”.

B4: IL-4: T helper type 2 cytokine, Peprotech 200-04 (protein, UniProt P05112 25-153, looked up)
Interleukin-4: HKCDITLQEIIKTLNSLTEQKTLCTELTVTDIFAASKNTTEKETFCRAATVLRQFYSHHEKDTRCLGATAQQFHRHKQLIRFLKRLDRNLWGLAGLNSCPVKEANQSTLENFLERLKTIMREKYSKCSS
B4: the “PIBF1 expression by human peripheral blood B cells (PIBF1 transcript fold change, Western Blot)” value in test [1] was “only IL-33 induced PIBF1 expression; also recorded: do not induce”.

B5: IL-10: cytokine, Peprotech 200-10 (protein, UniProt P22301 19-178, looked up)
Interleukin-10: SPGQGTQSENSCTHFPGNLPNMLRDLRDAFSRVKTFFQMKDQLDNLLLKESLLEDFKGYLGCQALSEMIQFYLEEVMPQAENQDPDIKAHVNSLGENLKTLRLRLRRCHRFLPCENKSKAVEQVKNAFNKLQEKGIYKAMSEFDIFINYIEAYMTMKIRN
Regarding B5, in test [1], the “PIBF1 expression by human peripheral blood B cells (PIBF1 transcript fold change, Western Blot)” value was “had no effect; also recorded: do not induce”.
